In brackets after ≈: the same amount, converted by molar mass. Structures can show the parent of a compound that is named as a salt. Where two headings read alike, the source gives them in different places.
Legend:
[1] = Dissolution study in simulated intestinal fluid (FaSSIF V2); type: physicochemical; conditions: 50 ml FaSSIF V2, pH 6.5, 37° C.
Source text: For BCS class II drugs, such as tranilast, the rate of dissolution of the drug form used in the gastrointestinal media can be the controlling factor in the overall absorption and thus the bioavailability of an oral drug. This becomes even more influential as the dose of a drug increases. For conditions such as fibrosis or cancer where a higher dose of tranilast may be needed for successful treatment, finding a form of tranilast that has a high dissolution rate is important. […] Pat. […] The dissolution study was carried out using the Pion inForm® instrument. Detection and quantification of tranilast was performed by in-situ UV-spectroscopy using a fibre-optic probe, allowing instantaneous data collection from the point of sample introduction.

[2] = Solid-state photostability study (UV irradiation, HPLC); conditions: for solid-state photostability (in words): UV irradiation up to 24 hours
Protocol: A 6-10 mg sample of each of the tranilast forms under investigation was spread over the bottom surface of a clear glass vial.

[3] = Solution photostability study (UV irradiation, HPLC); conditions: 2 mg dissolved in water (1 ml)
Protocol: (§1) A 2 mg sample of the four salt forms under investigation were each weighed into a clear glass vial. Each sample was dissolved in water (1 ml).

[4] = for Solubility (mg/ml) in terms of the mass of tranilast dissolved: water pH7.0, 25° C., 24 hours
[5] = pKa values and ΔpKa of tranilast and the salt formers
Source text: When two solid components are successfully crystallised together to form a two-component molecular complex with a new unique solid-state crystalline structure this could result in either a salt or a cocrystal. Whether a salt or a cocrystal is formed is dependent on whether a proton transfer takes place between the two different components of the complex. If a proton is transferred from one component to the other resulting in ionic bonding then a crystalline salt results. If no proton transfer occurs and the components remain in their neutral state, held together only by hydrogen bonds, Van der Waals bonds etc, then a cocrystal is formed. Whether or not proton transfer takes place is governed by the difference in pKa values for the acidic and basic functional groups of each component.

[6] = buffer, 2 mg/ml
Protocol: as §1

[7] = cited from earlier work
[8] = Solid-state accelerated stability, 40° C. and 75% relative humidity, 7 days, XRPD; type: physicochemical
Protocol: A study was carried out to examine the physical stability of the crystalline 1:1 tranilast N-methylglucamine salt polymorphs with respect to solid form conversion over time under accelerated conditions. […] After this time each sample was analysed by XRPD to observe any potential form changes.
A study was carried out to examine the physical stability of the 1:1 crystalline tranilast salts with respect to solid form conversion or deliquescence over time under accelerated conditions. […] Each sample was analysed by XRPD to observe any potential form changes.

[9] = Gravimetric vapour sorption (GVS) analysis; type: physicochemical; conditions: for moisture reversibly absorbed (GVS): across the 90% humidity range at 25° C.
Source text: The moisture sorption isotherm graph obtained for the crystalline 1:1 tranilast N-methylglucamine Form I salt is shown in FIG. 5.
The moisture sorption isotherm graph obtained for the crystalline 1:1 tranilast N-methylglucamine Form II salt is shown in FIG. 10.

[10] = Solid-state stability under high humidity, 25° C. and 100% relative humidity, 7 days, XRPD; type: physicochemical; conditions: sealed container
Protocol: A second study was carried out to explore the solid-state stability of the crystalline 1:1 tranilast N-methylglucamine salt polymorphs under high humidity. Forms I and II of 1:1 tranilast N-methylglucamine salt (50 mg) were separately placed in a sealed container at 25° C. and 100% relative humidity and stored under these conditions for 7 days. After this time each sample was analysed by XRPD to observe any potential form changes.

[11] = Solid-state stability under high storage temperature, 90° C., 7 days, XRPD; type: physicochemical; conditions: oven at 90° C.
Protocol: A third study was carried out to explore the solid-state stability of the crystalline 1:1 tranilast N-methylglucamine salt polymorphs under high storage temperatures. Forms I and II of 1:1 tranilast N-methylglucamine salt (50 mg) were stored in an oven at 90° C. for 7 days. After this time each sample was analysed by XRPD to observe any potential form changes.

[12] = Dissolution study in 5% aqueous dextrose solution; type: physicochemical; conditions: saline or isotonic, thermodynamic from solid, 50 ml 5% aqueous dextrose solution
Protocol: As this invention also relates to a method of preparing a liquid pharmaceutical formulation of tranilast for delivery, for example, as an injectable formulation, a liquid oral formulation or a nebulised inhaled formulation a study was also carried out to explore the dissolution rates of the crystalline tranilast salts of this invention in a suitable media. As liquid pharmaceutical formulations are usually made up in-situ at the bedside for immediate delivery it is important that these new solid forms of tranilast dissolve almost instantaneously for them to be suitable for use in a liquid pharmaceutical formulation. Whilst liquid oral formulations could be achieved by simply dissolving a drug in water prior to administration (the high aqueous solubility of the new crystalline tranilast salts would make this possible), a liquid formulation for inhaled or intravenous delivery requires the dissolution media to be isotonic. This is often achieved by using saline (0.9% sodium chloride in water) as the liquid formulation media. […] An alternative isotonic media suitable for preparing liquid pharmaceutical formulations for inhaled or intravenous administration is 5% aqueous dextrose solution. […] The results of this study can be seen in FIG. 41.

[13] = cited from earlier work; remark: listed apart in the source
[14] = 600 mg daily dosage, inter-patient variation; cited from earlier work
[15] = dissolved or stored in solution, UV exposure; cited from earlier work
[16] = exposed to light, listed as pure crystalline tranilast; cited from earlier work
[17] = cited from earlier work; remark: listed apart in the source
[18] = sealed container, 40° C. and 75% relative humidity, 7 days

Structure (SMILES): COc1ccc(/C=C/C(=O)Nc2ccccc2C(=O)O)cc1OC.NC(=O)c1cccnc1 [1:1 tranilast nicotinamide cocrystal]
- solubility reached after 30 seconds ([1]; 30 seconds): 2700 µg/mL
- solubility after 5 minutes ([1]; 5 minutes): 1950 µg/mL
- solubility after 20 minutes ([1]; 20 minutes): 1700 µg/mL

Structure (SMILES): CCNCC [Diethylamine]
- % tranilast remaining after UV exposure ([2]; solid state, 2 hrs): 99.57%
- % tranilast remaining after UV exposure ([2]; solid state, 6 hrs): 99.61%
- % tranilast remaining after UV exposure ([2]; solid state, 24 hrs): 99.63%
- % tranilast remaining after UV exposure ([3]; 2 hrs): 92.06%
- % tranilast remaining after UV exposure ([3]; 6 hrs): 52.30%
- % tranilast remaining after UV exposure ([3]; 24 hrs): 20.72%

Structure (SMILES): NCCCC[C@H](N)C(=O)O [L-Lysine]
- % tranilast remaining after UV exposure ([2]; solid state, 2 hrs): 99.35%
- % tranilast remaining after UV exposure ([2]; solid state, 6 hrs): 99.53%
- % tranilast remaining after UV exposure ([2]; solid state, 24 hrs): 99.54%
- Solubility (mg/ml) in terms of the mass of tranilast dissolved [4]: 277 to 283 mg/mL
- % tranilast remaining after UV exposure ([3]; 2 hrs): 92.53%
- % tranilast remaining after UV exposure ([3]; 6 hrs): 55.98%
- % tranilast remaining after UV exposure ([3]; 24 hrs): 21.03%

Structure (SMILES): NCCCC[C@H](N)C(=O)O [Lysine]
- ΔpKa [5]: 5.70

Structure (SMILES): CCNC[C@H](O)[C@@H](O)[C@H](O)[C@H](O)CO [N-ethylglucamine]
- ΔpKa [5]: 6.27
- % tranilast remaining after UV exposure ([2]; 2 h): 99.55%
- % tranilast remaining after UV exposure ([2]; 6 h): 99.61%
- % tranilast remaining after UV exposure ([2]; 24 h): 99.47%
- % tranilast remaining after UV exposure ([6]; 2 h): 84.13%
- % tranilast remaining after UV exposure ([6]; 6 h): 58.20%
- % tranilast remaining after UV exposure ([6]; 24 h): 35.90%
- pKa ([7]; protonated basic functional group of the salt former): 9.52

Structure (SMILES): CNC[C@H](O)[C@@H](O)[C@H](O)[C@H](O)CO [N-methylglucamine Form II]
- % tranilast remaining after UV exposure ([2]; 2 h): 99.50%
- % tranilast remaining after UV exposure ([2]; 6 h): 99.58%
- % tranilast remaining after UV exposure ([2]; 24 h): 99.51%

Structure (SMILES): CNC[C@H](O)[C@@H](O)[C@H](O)[C@H](O)CO [N-methylglucamine]
- ΔpKa ([5]; pKa (protonated base) - pKa (acid), salt former versus tranilast): 6.27

Structure (SMILES): COc1ccc(/C=C/C(=O)Nc2ccccc2C(=O)O)cc1OC.OCCNCCO [Tranilast Salt Diethanolamine, Crystalline Tranilast Diethanolamine Salt]
- deliquescence [8, 18]: no signs of deliquescence
- solid form conversion (XRPD) [8, 18]: retained their original crystalline form

Structure (SMILES): CCNCC.COc1ccc(/C=C/C(=O)Nc2ccccc2C(=O)O)cc1OC [Tranilast Salt Diethylamine, Crystalline 1:1 Tranilast Diethylamine Salt]
- deliquescence [8, 18]: no signs of deliquescence
- solid form conversion (XRPD) [8, 18]: retained their original crystalline form
- solid-state photostability (in words) ([2]; solid state): photostable
- Solubility (mg/ml) in terms of the mass of tranilast dissolved [4]: 18 to 20 mg/mL

Structure (SMILES): COc1ccc(/C=C/C(=O)Nc2ccccc2C(=O)O)cc1OC.NCCO [Tranilast Salt Ethanolamine, Crystalline Tranilast Ethanolamine Salt]
- deliquescence [8, 18]: no signs of deliquescence
- solid form conversion (XRPD) [8, 18]: retained their original crystalline form

Structure (SMILES): COc1ccc(/C=C/C(=O)Nc2ccccc2C(=O)O)cc1OC.NCCCC[C@H](N)C(=O)O [Tranilast Salt L-Lysine, Crystalline 1:1 Tranilast L-Lysine Salt]
- deliquescence [8]: no signs of deliquescence
- solid form conversion (XRPD) [8]: retained their original crystalline form
- solid-state photostability (in words) ([2]; solid state): photostable

Structure (SMILES): CCNC[C@H](O)[C@@H](O)[C@H](O)[C@H](O)CO.COc1ccc(/C=C/C(=O)Nc2ccccc2C(=O)O)cc1OC [Tranilast Salt N-ethylglucamine, Crystalline 1:1 Tranilast N-Ethylglucamine Salt]
- deliquescence [8, 18]: no signs of deliquescence
- solid form conversion (XRPD) [8, 18]: retained their original crystalline form

Structure (SMILES): CNC[C@H](O)[C@@H](O)[C@H](O)[C@H](O)CO.COc1ccc(/C=C/C(=O)Nc2ccccc2C(=O)O)cc1OC [Tranilast Salt N-methylglucamine Form I, Crystalline 1:1 Tranilast N-methylglucamine Form I Salt]
- form conversion in GVS (XRPD) ([9]; XRPD of the sample at 0% RH and 90% RH): did not demonstrate any form conversion
- moisture reversibly absorbed (GVS) ([9]; listed as crystalline 1:1 tranilast N-methylglucamine Form I salt): 1.4 % w/w
- solid form conversion (XRPD) [8, 18]: retained their original crystalline form
- solid form conversion (XRPD) [10]: retained their original crystalline form
- solid form conversion (XRPD) [11]: retained their original crystalline form
- aqueous solubility (mass of salt) ([4]; pH 7): greater than 1000 mg/ml

Structure (SMILES): CNC[C@H](O)[C@@H](O)[C@H](O)[C@H](O)CO.COc1ccc(/C=C/C(=O)Nc2ccccc2C(=O)O)cc1OC [Tranilast Salt N-methylglucamine Form II, Crystalline 1:1 Tranilast N-methylglucamine Form II Salt]
- moisture reversibly absorbed (GVS) ([9]; listed as crystalline 1:1 tranilast N-methylglucamine form II salt): 0.42 % w/w

Structure (SMILES): COc1ccc(/C=C/C(=O)Nc2ccccc2C(=O)[O-])cc1OC.O.[K+] [Tranilast Salt Potassium Monohydrate, Crystalline 1:1 Tranilast Potassium Monohydrate Salt]
- deliquescence [8, 18]: no signs of deliquescence
- solid form conversion (XRPD) [8, 18]: retained their original crystalline form

Structure (SMILES): COc1ccc(/C=C/C(=O)Nc2ccccc2C(=O)O)cc1OC [Tranilast, 2-[[3-(3,4-dimethoxyphenyl)-1-oxo-2-propenyl]amino] benzoic acid]
- solubility at 1 minute ([12]; 1 minute): 1 µg/mL (≈ 3.05 µM)
- solubility at 1 hour ([12]; 1 hour): 60 µg/mL (≈ 183 µM)
- pKa ([7]; carboxylic acid group of tranilast): 3.25
- solubility in pH 1.2 buffer solution ([13]; pH 1.2 buffer solution): 0.7 μg/ml
- solubility in water ([13]; water): 14.5 µg/mL (≈ 44.3 µM)
- Solubility ([13]; water, comparative literature value in Table 16): 14.5 µg/mL (≈ 44.3 µM)
- plasma concentrations of the drug [14]: 30 to 300 µM
- photochemical stability in solution (in words) [15]: photochemically unstable
- solid-state photostability (in words) [16]: photostable

Structure (SMILES): COc1ccc(/C=C/C(=O)Nc2ccccc2C(=O)O)cc1OC [crystalline 1:1 tranilast sodium salt]
- solubility at 20 minutes ([1]; simulated intestinal fluid (FaSSIF V2), thermodynamic from solid, 20 minutes): 300 µg/mL
- apparent solubility relative to pure crystalline tranilast (in words) [17]: lower apparent solubility than pure tranilast
- apparent solubility relative to pure crystalline tranilast (in words) ([17]; listed as crystalline tranilast sodium salt): even less than that of pure tranilast

From patent US12084399B2, “Crystalline tranilast salts and their pharmaceutical use” (NUFORMIX TECHNOLOGIES LIMITED, priority 2018, dated 2024)
